Patent EP3118219A1, “NICOTINIC CHANNEL SUBUNITS OF […] AND THEIR USES THEREOF” (priority 2015, dated 2017)
pEC50: −log10 of the molar value.

Tests used:
[1] = test system: Apis mellifera nicotinic acetylcholine receptor Am-nAChRα5 (nAChRα5 subunit, SEQ ID NO: 5), expressed with unc74+unc50+emc6; assay: Two-electrode voltage-clamp dose-response on Xenopus laevis oocytes expressing the nAChRα5 subunit (with unc74+unc50+emc6); type: cell-based; settings: current in Xenopus oocytes, dose-response curve; traces at 500 µM (Figure 4)
Procedure: (§1) For example, ric3 (from C.elegans, the nucleic acid sequence being SEQ ID NO: 64 and the amino acid sequence being SEQ ID NO: 65, or honeybee) is clearly necessary to get a reliable expression of the nAChR α7 subunit and a response to ACh, while for the nAChRα5 subunit a cocktail of emc6, unc50 and unc74 chaperone proteins improves expression with response amplitude between 0.1 to several µA for ACh concentration between 1 to 1000µM (Figure 2). In the case of the nAChRα3 subunits, expression can be obtain either alone, or in combination with different cocktails of chaperone or with the vertebrate β2 nAChR subunits. Each of these combinations has a specific affinity for ACh. […]
(§2) Typically, an oocyte, injected 2 to 5 days before with a given mixture of RNA is placed in the recording chamber filled with the desired solution (usually Na100). […] Both electrodes are then impaled into the oocyte and the resting membrane potential is measured (typically -30/- 50 mV). […] Sometime, the effect of a test compound can be determined directly, by applying 50 µl of the compound directly to the bath (with the main perfusion stopped) at the final working concentration (usually 100-1000 µM), after proper dilution from a stock solution (usually 10 mM in water or DMSO or ethanol) into the desired recording solution. […]

[2] = target: T1, Apis mellifera nicotinic acetylcholine receptor Am-nAChRα7 (nAChR α7 subunit, SEQ ID NO: 7), expressed with ric3 (Apis mellifera, UniProt A0ACM8Q2V8); assay: Two-electrode voltage-clamp dose-response on Xenopus laevis oocytes expressing the nAChRα7 subunit (with ric3); type: cell-based
T1 sequence (A0ACM8Q2V8 21-555): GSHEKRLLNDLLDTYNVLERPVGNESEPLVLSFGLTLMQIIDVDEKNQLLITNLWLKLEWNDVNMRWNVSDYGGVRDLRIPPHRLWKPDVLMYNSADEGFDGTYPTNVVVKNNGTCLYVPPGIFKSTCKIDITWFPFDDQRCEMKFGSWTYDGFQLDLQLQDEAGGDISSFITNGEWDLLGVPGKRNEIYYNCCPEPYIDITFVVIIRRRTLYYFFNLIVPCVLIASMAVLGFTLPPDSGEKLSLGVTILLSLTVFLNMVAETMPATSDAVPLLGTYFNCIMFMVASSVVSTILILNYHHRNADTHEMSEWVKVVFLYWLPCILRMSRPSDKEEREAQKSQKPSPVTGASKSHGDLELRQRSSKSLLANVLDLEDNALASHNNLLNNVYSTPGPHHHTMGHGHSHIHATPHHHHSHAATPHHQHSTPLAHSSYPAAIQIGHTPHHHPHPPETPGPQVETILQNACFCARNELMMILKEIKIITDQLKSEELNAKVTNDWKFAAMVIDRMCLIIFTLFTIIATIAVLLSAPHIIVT
Procedure: as §1, §2

Q: With `CN/C(=N\[N+](=O)[O-])NCc1cnc(Cl)s1` [clothianidin] as the compound, how does the sensitivity to clothianidin [1] read?
A: The sensitivity to clothianidin was “completely insensitive”.

Q: What about the pEC50 [2] of the same compound?
A: Its pEC50 is about 5.00.

Q: What about the “agonist efficacy compared with ACh” value ([2]; dose-response curves of ACh and clothianidin recorded on the same oocyte (Figure 4C)) of the same compound?
A: The value was “less effective agonist than ACh”.
